Our source for the IC50 values is US9624241B2 (Incyte Corporation, priority 2013, dated 2017).

Like-named read-outs stand apart in the source and are kept apart here.

Assay [1] deals with BRD4-BD2 (Homo sapiens (Human), UniProt O60885). Put plainly: BRD4 AlphaScreen Assay (Example A2), BRD4-BD2. It counts as binding. As to conditions: read-out: BRD4 BD-2 enzyme IC50. In short, it runs like this: (§1)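 Displacement of 50 nM biotinylated tetra-acetylated histone H4 peptide from BRD4 BD1 or BD2 (<1 nM) in Tris-HCl pH 7.5 buffer with DTT. Inhibitors serially diluted in DMSO, added first, then incubated 75 min in the dark at room temperature before AlphaScreen read. IC50 fitted from percent control activity versus log concentration.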

In assay [2] the target is BRD4-BD1 (Homo sapiens (Human), UniProt O60885). Put plainly: BRD4 AlphaScreen Assay (Example A2), BRD4-BD1. Particulars: Assay A2, AlphaScreen, BRD4-BD1; read-out: BRD4 BD-1 enzyme IC50. It counts as binding. The procedure, abridged: as §1
[3] abbreviates: Assay A2, AlphaScreen, BRD4-BD2.

In the case of `CNC(=O)c1ncccc1C1COc2c(-c3c(C)noc3C)ccc3[nH]c(=O)n1c23` (centres unmarked) [Example 128, 3-[7-(3,5-Dimethylisoxazol-4-yl)-2-oxo-1,2,4,5-tetrahydroimidazo[1,5,4-de][1,4]benzoxazin-4-yl]-N-methylpyridine-2-carboxamide], the IC50 in assay [1] (setting [3]) and in assay [2] was below 100 nM each time.

`Cc1noc(C)c1-c1ccc2[nH]c(=O)n3c2c1OCC3c1cccnc1CN` (centres unmarked) [Example 130, 4-[2-(Aminomethyl)pyridin-3-yl]-7-(3,5-dimethylisoxazol-4-yl)-4,5-dihydroimidazo[1,5,4-de][1,4]benzoxazin-2(1H)-one bis(trifluoroacetate)]: the IC50 in assay [1] (setting [3]) and in assay [2] was below 100 nM throughout.

With `Cc1noc(C)c1-c1cc(CN)c2[nH]c(=O)n3c2c1OC[C@@H]3c1ccccn1` [Example 137, (4S)-9-(Aminomethyl)-7-(3,5-dimethylisoxazol-4-yl)-4-pyridin-2-yl-4,5-dihydroimidazo[1,5,4-de][1,4]benzoxazin-2(1H)-one bis(trifluoroacetate)], the IC50 in assay [1] (setting [3]) is below 100 nM; in assay [2], 1000 to 10000 nM.

For the molecule `Cc1noc(C)c1-c1cc(CNC(=O)Cc2ccccc2)c2[nH]c(=O)n3c2c1OC[C@@H]3c1ccccn1` [Example 139, N-{[(4S)-7-(3,5-Dimethylisoxazol-4-yl)-2-oxo-4-pyridin-2-yl-1,2,4,5-tetrahydroimidazo[1,5,4-de][1,4]benzoxazin-9-yl]methyl}-2-phenylacetamide], the IC50 in assay [1] (setting [3]) and in assay [2] was below 100 nM in each case.

`COCC(=O)NCc1cc(-c2c(C)noc2C)c2c3c1[nH]c(=O)n3[C@@H](c1ccccn1)CO2` [Example 140, N-{[(4S)-7-(3,5-Dimethylisoxazol-4-yl)-2-oxo-4-pyridin-2-yl-1,2,4,5-tetrahydroimidazo[1,5,4-de][1,4]benzoxazin-9-yl]methyl}-2-methoxyacetamide]: the IC50 in assay [1] (setting [3]) and in assay [2] was below 100 nM throughout.

With `Cc1noc(C)c1-c1cc(CNS(C)(=O)=O)c2[nH]c(=O)n3c2c1OC[C@@H]3c1ccccn1` [Example 141, N-{[(4S)-7-(3,5-Dimethylisoxazol-4-yl)-2-oxo-4-pyridin-2-yl-1,2,4,5-tetrahydroimidazo[1,5,4-de][1,4]benzoxazin-9-yl]methyl}methanesulfonamide], the half-inhibitory concentration (IC50) in assay [1] (setting [3]) and in assay [2] was below 100 nM throughout.

`Cc1noc(C)c1-c1cc(CNC(=O)NC(C)C)c2[nH]c(=O)n3c2c1OC[C@@H]3c1ccccn1` [Example 142, N-{[(4S)-7-(3,5-Dimethylisoxazol-4-yl)-2-oxo-4-pyridin-2-yl-1,2,4,5-tetrahydroimidazo[1,5,4-de][1,4]benzoxazin-9-yl]methyl}-N′-isopropylurea]: the IC50 is below 100 nM in assay [1] (setting [3]) and 100 to 1000 nM in assay [2].

Consider `Cc1noc(C)c1-c1cc(CNC(=O)CN(C)C)c2[nH]c(=O)n3c2c1OC[C@@H]3c1ccccn1` [Example 143, 2-(Dimethylamino)-N-{[(4S)-7-(3,5-dimethylisoxazol-4-yl)-2-oxo-4-pyridin-2-yl-1,2,4,5-tetrahydroimidazo[1,5,4-de][1,4]benzoxazin-9-yl]methyl}acetamide], for which the IC50 in assay [1] (setting [3]) is below 100 nM; in assay [2], 100 to 1000 nM.

For `CC(=O)N1CCCN(c2nc3ccc(-c4c(C)noc4C)c4c3n2[C@@H](c2ccccn2)CO4)CC1` [Example 148, (4S)-2-(4-Acetyl-1,4-diazepan-1-yl)-7-(3,5-dimethylisoxazol-4-yl)-4-pyridin-2-yl-4,5-dihydroimidazo[1,5,4-de][1,4]benzoxazine], the IC50 in assay [1] (setting [3]) and in assay [2] was below 100 nM throughout.

Consider `Cc1noc(C)c1-c1ccc2nc(N3CCCN(S(C)(=O)=O)CC3)n3c2c1OC[C@@H]3c1ccccn1` [Example 149, (4S)-7-(3,5-Dimethylisoxazol-4-yl)-2-[4-(methylsulfonyl)-1,4-diazepan-1-yl]-4-pyridin-2-yl-4,5-dihydroimidazo[1,5,4-de][1,4]benzoxazine], for which the IC50 in assay [1] (setting [3]) and in assay [2] was below 100 nM each time.

As to `Cc1noc(C)c1-c1ccc2nc(N3CC[C@@H](N(C)C(=O)CC#N)C3)n3c2c1OC[C@@H]3c1ccccn1` [Example 152, 2-Cyano-N-{(3R)-1-[(4S)-7-(3,5-dimethylisoxazol-4-yl)-4-pyridin-2-yl-4,5-dihydroimidazo[1,5,4-de][1,4]benzoxazin-2-yl]pyrrolidin-3-yl}-N-methylacetamide], the IC50 in assay [1] (setting [3]) and in assay [2] was below 100 nM in each case.

`Cc1noc(C)c1-c1ccc2nc(N3CC[C@@H](NC(=O)N4CCOCC4)C3)n3c2c1OC[C@@H]3c1ccccn1` [Example 153, N-{(3R)-1-[(4S)-7-(3,5-Dimethylisoxazol-4-yl)-4-pyridin-2-yl-4,5-dihydroimidazo[1,5,4-de][1,4]benzoxazin-2-yl]pyrrolidin-3-yl}morpholine-4-carboxamide]: the IC50 in assay [1] (setting [3]) and in assay [2] was below 100 nM each time.

For `Cc1noc(C)c1-c1cc(F)c2nc(N(C)C)n3c2c1OCC3c1cccnc1` (centres unmarked) [Example 156, 7-(3,5-Dimethylisoxazol-4-yl)-9-fluoro-N,N-dimethyl-4-pyridin-3-yl-4,5-dihydroimidazo[1,5,4-de][1,4]benzoxazin-2-amine], the half-maximal inhibitory concentration (IC50) in assay [1] (setting [3]) was below 100 nM; in assay [2], 100 to 1000 nM.

On to `Cc1noc(C)c1-c1cc(F)c2nc(N3CCC(O)C3)n3c2c1OCC3c1cccnc1` (centres unmarked) [Example 157, 1-[7-(3,5-Dimethylisoxazol-4-yl)-9-fluoro-4-pyridin-3-yl-4,5-dihydroimidazo[1,5,4-de][1,4]benzoxazin-2-yl]pyrrolidin-3-ol], for which the IC50 in assay [1] (setting [3]) and in assay [2] was below 100 nM each time.

Regarding `CCNc1nc2c(F)cc(-c3c(C)noc3C)c3c2n1C(c1cccnc1)CO3` (centres unmarked) [Example 158, 7-(3,5-Dimethylisoxazol-4-yl)-N-ethyl-9-fluoro-4-pyridin-3-yl-4,5-dihydroimidazo[1,5,4-de][1,4]benzoxazin-2-amine], the IC50 in assay [1] (setting [3]) and in assay [2] was below 100 nM each time.

Turning to `Cc1noc(C)c1-c1ccc2nc(N(C)CCO)n3c2c1OCC3c1ccccn1` (centres unmarked) [Example 185, 2-[[7-(3,5-dimethylisoxazol-4-yl)-4-pyridin-2-yl-4,5-dihydroimidazo[1,5,4-de][1,4]benzoxazin-2-yl](methyl)amino]ethanol], the half-inhibitory concentration (IC50) in assay [1] was below 100 nM; in assay [2], 100 to 1000 nM.

Consider `Cc1noc(C)c1-c1ccc2nc(N3CC(NC(=O)OC(C)(C)C)C3)n3c2c1OC[C@@H]3c1ccccn1` [Example 196, tert-butyl {1-[(4S)-7-(3,5-dimethylisoxazol-4-yl)-4-pyridin-2-yl-4,5-dihydroimidazo[1,5,4-de][1,4]benzoxazin-2-yl]azetidin-3-yl}carbamate], for which the IC50 in assay [1] (setting [3]) and in assay [2] was below 100 nM throughout.

In the case of `Cc1noc(C)c1-c1ccc2nc(N3CC(NC(=O)C(C)C)C3)n3c2c1OC[C@@H]3c1ccccn1` [Example 233, N-{1-[(4S)-7-(3,5-dimethylisoxazol-4-yl)-4-pyridin-2-yl-4,5-dihydroimidazo[1,5,4-de][1,4]benzoxazin-2-yl]azetidin-3-yl}-2-methylpropanamide], the IC50 in assay [1] (setting [3]) and in assay [2] was below 100 nM throughout.

As to `CCS(=O)(=O)NC1CN(c2nc3ccc(-c4c(C)noc4C)c4c3n2[C@@H](c2ccccn2)CO4)C1` [Example 238, N-{1-[(4S)-7-(3,5-dimethylisoxazol-4-yl)-4-pyridin-2-yl-4,5-dihydroimidazo[1,5,4-de][1,4]benzoxazin-2-yl]azetidin-3-yl}ethanesulfonamide], the IC50 in assay [1] (setting [3]) and in assay [2] was below 100 nM throughout.

As for `Cc1noc(C)c1-c1c(Cl)c(Cl)c2[nH]c(=O)n3c2c1OC[C@@H]3c1ccccn1` [Example 252, (4S)-8,9-dichloro-7-(3,5-dimethylisoxazol-4-yl)-4-pyridin-2-yl-4,5-dihydroimidazo[1,5,4-de][1,4]benzoxazin-2(1H)-one bistrifluoroacetate], the IC50 in assay [1] (setting [3]) and in assay [2] was 100 to 1000 nM each time.

Regarding `Cc1noc(C)c1-c1cc(CNC(C)C)c2[nH]c(=O)n3c2c1OCC3c1ccccn1` (centres unmarked) [Example 253, 7-(3,5-Dimethylisoxazol-4-yl)-9-[(isopropylamino)methyl]-4-pyridin-2-yl-4,5-dihydroimidazo[1,5,4-de][1,4]benzoxazin-2(1H)-one], the half-maximal inhibitory concentration (IC50) in assay [1] (setting [3]) and in assay [2] was 100 to 1000 nM throughout.

For the molecule `Cc1noc(C)c1-c1cc(CO)c2[nH]c(=O)n3c2c1OCC3c1ccccn1` (centres unmarked) [Example 254, 7-(3,5-Dimethylisoxazol-4-yl)-9-(hydroxymethyl)-4-pyridin-2-yl-4,5-dihydroimidazo[1,5,4-de][1,4]benzoxazin-2(1H)-one], the IC50 in assay [1] (setting [3]) and in assay [2] was below 100 nM each time.

On to `Cc1noc(C)c1-c1ccc2[nH]c(=S)n3c2c1OCC3c1ccccn1` (centres unmarked) [Example 255, 7-(3,5-Dimethylisoxazol-4-yl)-4-pyridin-2-yl-4,5-dihydroimidazo[1,5,4-de][1,4]benzoxazine-2(1H)-thione], for which the half-maximal inhibitory concentration (IC50) in assay [1] (setting [3]) and in assay [2] was below 100 nM throughout.

For `Cc1noc(C)c1-c1cc(-c2cn[nH]c2C)c2[nH]c(=O)n3c2c1OCC3c1ccccn1` (centres unmarked) [Example 257, 7-(3,5-dimethylisoxazol-4-yl)-9-(3-methyl-1H-pyrazol-4-yl)-4-pyridin-2-yl-4,5-dihydroimidazo[1,5,4-de][1,4]benzoxazin-2(1H)-one], the IC50 in assay [1] (setting [3]) was below 100 nM; in assay [2], 100 to 1000 nM.

`Cc1n[nH]c(C)c1-c1cc(-c2c(C)noc2C)c2c3c1[nH]c(=O)n3C(c1ccccn1)CO2` (centres unmarked) [Example 258, 7-(3,5-dimethylisoxazol-4-yl)-9-(3,5-dimethyl-1H-pyrazol-4-yl)-4-pyridin-2-yl-4,5-dihydroimidazo[1,5,4-de][1,4]benzoxazin-2(1H)-one]: the IC50 was in the range of 100 to 1000 nM in assay [1] (setting [3]) and 1000 to 10000 nM in assay [2].
